Results published in US7939661B2, “Pyridine, quinoline and pyrimidine derivatives” (Hoffman-La Roche Inc., priority 2006, dated 2011).

molecular target: T1, human subtype 5 somatostatin receptor (Homo sapiens, UniProt P35346); assay: radioligand replacement (binding) assay, membranes of CHO cells expressing human SSTR5, 125I-labeled 11-Tyr somatostatin-14 tracer; settings: human SSTR5, CHO cell membranes, 0.05 nM 125I-labeled 11-Tyr somatostatin-14, 1 h at rt; Ki from IC50 by Cheng-Prussoff equation
T1 construct: host or cells: CHO cells, stably transfected; membranes prepared from them
T1 sequence (P35346 whole entry): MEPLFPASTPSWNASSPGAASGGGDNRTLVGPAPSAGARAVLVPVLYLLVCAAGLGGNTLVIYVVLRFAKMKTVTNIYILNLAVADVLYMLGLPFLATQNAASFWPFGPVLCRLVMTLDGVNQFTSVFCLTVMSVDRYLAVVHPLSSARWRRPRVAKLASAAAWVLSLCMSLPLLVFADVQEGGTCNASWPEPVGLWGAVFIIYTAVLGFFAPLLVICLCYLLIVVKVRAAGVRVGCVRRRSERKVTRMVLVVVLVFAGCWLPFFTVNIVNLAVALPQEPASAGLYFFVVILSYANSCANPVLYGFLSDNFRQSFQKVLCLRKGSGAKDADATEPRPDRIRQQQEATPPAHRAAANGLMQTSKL
Protocol: A CHO cell line stably transfected with a plasmid encoding the human subtype 5 somatostatin receptor (GenBank accession number D16827) was obtained from Euroscreen. Cells were cultured and used for binding and functional assays.
Membranes of these cells were prepared by sonication in the presence of protease inhibitors and subsequent fractionating centrifugation. The protein concentration in the membrane preparation was determined using a commercial kit (BCA kit, Pierce, USA). Membranes were stored at −80° C. until use. After thawing membranes were diluted in assay buffer (50 mM Tris-HCl at pH 7.4, 5 mM MgCl2 and 0.20% BSA) and subjected to Dounce homogenization.
For binding studies, 0.1 mL membrane suspension, corresponding to approximately 6×10^−15 mol receptor, was incubated for 1 h at rt with 0.05 nM ^125I-labeled tracer (11-Tyr somatostatin-14, Perkin-Elmer) and either test compounds in varying concentrations or, for the determination of non-specific binding, 0.001 mM non-labeled somatostatin-14. The incubation was stopped by filtration through GF/B glassfiber filters and washing with ice-cold wash buffer (50 mM Tris-HCl at pH 7.4). The bound radioactivity was measured after application of a scintillation cocktail (Microscint 40) and expressed as disintegrations per minute (dpm).
The receptor concentration was determined in a prior saturation experiment where a fixed, arbitrary amount of membranes was incubated with a concentration range of radio-labeled tracer. This allows estimating the total number of specific binding sites per amount of protein (i.e., Bmax), typically between 1 and 5 pmol/mg.
The concentration of the test compound required to result in half maximal inhibition of binding of the radio-labeled tracer (IC50) was estimated from a concentration-versus-dpm graph. The binding affinity (Ki) was calculated from the IC50 by applying the Cheng-Prussoff equation for single binding sites.

First: CCOc1cc(CN2CCC(Nc3cnc4ccccc4c3)CC2)ccc1OC(F)F [Example 99, [1-(4-difluoromethoxy-3-ethoxy-benzyl)-piperidin-4-yl]-quinolin-3-yl-amine]
Second: CCOc1cc(CN2CCC(Nc3ccnc(C)c3)CC2)ccc1OCC(C)C [Example 122, [1-(3-ethoxy-4-isobutoxy-benzyl)-piperidin-4-yl]-(2-methyl-pyridin-4-yl)-amine]
The Ki of the first is 7.9-fold lower: 62 nM for the first, 492 nM for the second. The first binds more tightly here.

In the case of CCOc1cc(CN2CCC(Nc3cnc(N)c(C)c3)CC2)cc(OCC)c1-c1ccc(F)cc1 [Example 79, N^5-[1-(2,6-diethoxy-4′-fluoro-biphenyl-4-ylmethyl)-piperidin-4-yl]-3-methyl-pyridine-2,5-diamine], the Ki is reported as 25 nM.
